Measured values reported in US12290509B2, “Treatment of hepatitis delta virus infection” (priority 2014, dated 2025).
Several values for one entry are separate records, joined by “and”; a condition that tells them apart may be missing. Equal entries are not always repeated. Where two headings read alike, the source gives them in different places.

Experiments:
[1] = system: hepatitis delta virus (HDV); format: in vivo, human
[2] = Serum ALT values in HDV patients; format: in vivo, human
[3] = Lonafarnib serum/plasma concentration in HDV patients (LC-MS/MS); format: in vivo, human; details: N=3
Excerpt: As used herein, a serum lonafarnib level or concentration can be measured from a serum sample obtained from a subject periodically (such as weekly, biweekly, monthly or according to other schedules) and the levels during intervening periods can be extrapolated. […] In some embodiments the first measurement is made no earlier than one week after the initiation of oral therapy. Serum levels of lonafarnib can be measured using art-known methods, including radioimmunoassays, chromatographic assays, mass spectrometry and the like. In some embodiments of the invention, patient serum samples were extracted using a protein precipitation method (Acetonitrile).

[4] = cited from earlier work
[5] = formulated in crystalline forms; cited from earlier work
[6] = 200 mg BID lonafarnib; Hanrahan et al. 2009, List et al. 2002; cited from earlier work
[7] = Adverse events / tolerability in HDV patients; details: N=3
hepatitis B virus (HBV) = assay: HBV DNA viral load and HBsAg in patients infected with HBV and HDV; details: 200 mg BID lonafarnib 12 weeks; baseline about 4 log IU/ml; below LOQ of 2 log IU/mL
Excerpt: The term “HBV viral load” of a human serum or plasma sample refers to the number of copies of human HBV DNA in a given amount of human serum or plasma sample. HBV DNA may be detected and quantitated using real-time PCR. Commercial assays for quantitating HBV DNA are available. In the United States, Abbott offers the RealTime HBV assay, which is an in vitro PCR assay for the quantitation of HBV DNA in human serum or plasma. A CE certified kit for real-time PCR-based detection of HBV is commercially available from Analytik Jena, Germany (RoboGene® HBV DNA Quantification Kit 2.0).

[8] = Norvir package insert, cited from earlier work

NC(=O)N1CCC(CC(=O)N2CCC([C@H]3c4ncc(Br)cc4CCc4cc(Cl)cc(Br)c43)CC2)CC1 [lonafarnib]
Δ log Baseline to Day 28 ([1]; 200 mg BID lonafarnib, individual patients 4-6): −1.85 log and −1.06 log and −1.98 log
Δ log Baseline to Day 28 ([1]; 300 mg BID lonafarnib, individual patients 1-3): −1.95 log and −1.97 log and −2.07 log
ALT following ALT flare, patient A-001-5 ([2]; 200 mg BID lonafarnib): ALT normalization
ALT following ALT flare, patient A-001-1 ([2]; 300 mg BID lonafarnib): ALT normalization
Mean Serum Concentrations (lonafarnib) ([3]; Day 7, LNF 200 mg BID): 2555 ng/mL
Mean Serum Concentrations (lonafarnib) ([3]; Day 7, LNF 300 mg BID): 2994 ng/mL
Mean Serum Concentrations (lonafarnib) ([3]; Day 14, LNF 200 mg BID): 2959 ng/mL
Mean Serum Concentrations (lonafarnib) ([3]; Day 14, LNF 300 mg BID): 1548 ng/mL
Mean Serum Concentrations (lonafarnib) ([3]; Day 28, LNF 200 mg BID): 2771 ng/mL
Mean Serum Concentrations (lonafarnib) ([3]; Day 28, LNF 300 mg BID): 1984 ng/mL
Mean Serum Concentrations (lonafarnib) ([3]; Day 56, LNF 200 mg BID): 1656 ng/mL
Mean Serum Concentrations (lonafarnib) ([3]; Day 56, LNF 300 mg BID): 2032 ng/mL
Mean Serum Concentrations (lonafarnib) ([3]; Day 84, LNF 200 mg BID): 443 ng/mL
Mean Serum Concentrations (lonafarnib) ([3]; Day 84, LNF 300 mg BID): 977 ng/mL
stability in solution ([4]; by pH): stable at neutral pH but will hydrolyze in acidic or basic conditions
water solubility [4]: poorly water soluble
hygroscopicity ([4]; crystalline solid): non-hygroscopic
thermal stability ([4]; solid state): thermally stable
bioavailability in animals [5]: low and variable bioavailability
tolerability in cancer patients [6]: well tolerated
Anorexia, Grade 2 ([7]; LNF 200 mg BID): ✓
Diarrhea, Grade 2 ([7]; LNF 200 mg BID): ✓
Fatique, Grade 2 ([7]; LNF 200 mg BID): ✓
Nausea, Grade 2 ([7]; LNF 200 mg BID): ✓
Wt Loss, Grade 2 ([7]; LNF 200 mg BID): ✓
Anorexia, Grade 2 ([7]; LNF 300 mg BID): ✓
Diarrhea, Grade 2 ([7]; LNF 300 mg BID): ✓
Fatique, Grade 2 ([7]; LNF 300 mg BID): ✓
Nausea, Grade 2 ([7]; LNF 300 mg BID): ✓
Wt Loss, Grade 2 ([7]; LNF 300 mg BID): ✓
HBV VL (HBV DNA level) after suppression, patient A-001-5 (hepatitis B virus (HBV)): approximately 1.5 log IU/ml

CC(C)c1nc(CN(C)C(=O)N[C@H](C(=O)N[C@@H](Cc2ccccc2)C[C@H](O)[C@H](Cc2ccccc2)NC(=O)OCc2cncs2)C(C)C)cs1 [ritonavir]
increase in AUC of the co-administered primary drug ([8]; Fluticasone propionate, aqueous nasal spray): 350 fold
increase in AUC of the co-administered primary drug ([8]; sidenafil): 11 fold
increase in AUC of the co-administered primary drug ([8]; trimethoprim): 1.2 fold
